Measurements taken from publication PMC5138836, “Antiproliferative activities of Amaryllidaceae alkaloids from Lycoris radiata targeting DNA topoisomerase I” (Scientific Reports, 2016).

Biological target: T1, DNA topoisomerase I (Top I) (Escherichia coli, UniProt P06612)
T1 construct: gene topA
Test: in vitro Top I inhibition assay (absorbance, plate reader); also affinity ultrafiltration HPLC-MS, EF […]
Format: biochemical

T1 sequence (P06612 whole entry): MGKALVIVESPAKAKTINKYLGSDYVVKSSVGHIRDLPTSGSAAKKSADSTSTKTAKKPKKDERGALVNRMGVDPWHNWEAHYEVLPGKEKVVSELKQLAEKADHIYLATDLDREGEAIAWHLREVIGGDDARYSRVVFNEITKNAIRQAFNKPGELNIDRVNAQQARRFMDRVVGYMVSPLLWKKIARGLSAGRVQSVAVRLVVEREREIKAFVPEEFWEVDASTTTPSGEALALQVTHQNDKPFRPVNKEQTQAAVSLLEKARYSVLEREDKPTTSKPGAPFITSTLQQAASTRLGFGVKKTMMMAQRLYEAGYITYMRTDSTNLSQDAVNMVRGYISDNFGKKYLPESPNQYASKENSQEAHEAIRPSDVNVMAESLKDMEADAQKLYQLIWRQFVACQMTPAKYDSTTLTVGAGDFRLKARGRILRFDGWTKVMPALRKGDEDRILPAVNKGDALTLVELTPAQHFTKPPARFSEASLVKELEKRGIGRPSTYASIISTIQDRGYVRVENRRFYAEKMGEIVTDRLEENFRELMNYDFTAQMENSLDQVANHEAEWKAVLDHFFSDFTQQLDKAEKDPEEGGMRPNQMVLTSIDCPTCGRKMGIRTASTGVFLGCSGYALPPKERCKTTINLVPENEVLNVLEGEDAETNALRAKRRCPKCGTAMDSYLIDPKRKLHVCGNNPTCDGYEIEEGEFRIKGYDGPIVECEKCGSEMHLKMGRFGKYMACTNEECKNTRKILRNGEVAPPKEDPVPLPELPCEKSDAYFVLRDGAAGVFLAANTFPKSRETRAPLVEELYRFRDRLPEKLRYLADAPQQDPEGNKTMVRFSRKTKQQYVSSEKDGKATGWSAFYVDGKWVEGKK

SMILES: CN1CCC2=C[C@H](O)[C@H]3OC(=O)c4cc5c(cc4[C@H]3[C@@H]21)OCO5 [compound 5, hippeastrine]
- IC50: 23 µM
